Test results taken from patent US20130157954A1, “METHODS FOR TREATMENT OR PROPHYLAXIS OF KIDNEY OR LIVER DYSFUNCTION” (NPS PHARMACEUTICALS, INC., priority 2010, published 2013).

Assay: Example 2: liver biomarkers (albumin, gamma glutamyl transferase, total bilirubin, ALT, AST, ALP) in short bowel syndrome patients, every four weeks for 24 weeks; also sorted by >10% change from baseline
Format: in vivo, Human
Settings: 0.05 mg/kg/d; for Bilirubin: subjects Within 10% of Baseline / Bilirubin: subjects with >10% decrease from Baseline / Bilirubin: subjects with >10% increase from Baseline / ALT: subjects Within 10% of Baseline / ALT: subjects with >10% decrease from Baseline / ALT: subjects with >10% increase from Baseline / AST: subjects Within 10% of Baseline / AST: subjects with >10% decrease from Baseline / AST: subjects with >10% increase from Baseline / Albumin: subjects Within 10% of Baseline / Albumin: subjects with >10% decrease from Baseline / Albumin: subjects with >10% increase from Baseline / Alkaline Phosphatase: subjects Within 10% of Baseline / Alkaline Phosphatase: subjects with >10% decrease from Baseline / Alkaline Phosphatase: subjects with >10% increase from Baseline: m = 40
Procedure: To further confirm the results of Example 1, a further study was conducted involving more individuals and additional diagnostic biomarkers. Human patients with short bowel syndrome were divided into two groups: a control group (43 total individuals) to receive placebo, and an experimental group (42 total individuals) to receive teduglutide at 0.05 mg/kg/day throughout the study. Patients were treated by subcutaneous injection of placebo or the appropriate dose of teduglutide. Known biomarkers of liver function were monitored every four weeks, for 24 weeks. The liver biomarkers tested included albumin, gamma glutamyl transferase, total bilirubin, ALT and AST and ALP. Before administration of placebo or teduglutide, diagnostic biomarker levels were tested to establish a baseline for each individual.
To determine the effect of GLP-2 on the levels of the diagnostic biomarkers, the average level of each biomarker was measured for the placebo and teduglutide treated groups for each visit. Furthermore, the average change from baseline was calculated using the established baseline values. For FIGS. 17-28, p-values were calculated using the t-test.
P values are provided, which were calculated for each distribution of biomarker changes for each week using the chi-squared test.

CC[C@H](C)[C@H](NC(=O)[C@H](Cc1ccccc1)NC(=O)[C@H](CC(=O)O)NC(=O)[C@H](CCCNC(=N)N)NC(=O)[C@H](C)NC(=O)[C@H](C)NC(=O)[C@H](CC(C)C)NC(=O)[C@H](CC(N)=O)NC(=O)[C@H](CC(=O)O)NC(=O)[C@H](CC(C)C)NC(=O)[C@@H](NC(=O)[C@@H](NC(=O)[C@H](CC(N)=O)NC(=O)[C@H](CCSC)NC(=O)[C@H](CCC(=O)O)NC(=O)[C@H](CC(=O)O)NC(=O)[C@H](CO)NC(=O)[C@H](Cc1ccccc1)NC(=O)[C@H](CO)NC(=O)CNC(=O)[C@H](CC(=O)O)NC(=O)CNC(=O)[C@@H](N)Cc1c[nH]cn1)[C@@H](C)O)[C@@H](C)CC)C(=O)N[C@@H](CC(N)=O)C(=O)N[C@@H](Cc1c[nH]c2ccccc12)C(=O)N[C@@H](CC(C)C)C(=O)N[C@H](C(=O)N[C@@H](CCC(N)=O)C(=O)N[C@H](C(=O)N[C@@H](CCCCN)C(=O)N[C@H](C(=O)N[C@H](C(=O)N[C@@H](CC(=O)O)C(=O)O)[C@@H](C)O)[C@@H](C)CC)[C@@H](C)O)[C@@H](C)CC [teduglutide]
Bilirubin: subjects Within 10% of Baseline (Week 2): 5 (12.5%) n (%)
Bilirubin: subjects with >10% decrease from Baseline (Week 2): 28 (70.0%) n (%)
Bilirubin: subjects with >10% increase from Baseline (Week 2): 7 (17.5%) n (%)
ALT Change from Baseline, Max (Week 4): 29 U/L
ALT Change from Baseline, Mean (Week 4): −9.2 U/L
ALT Change from Baseline, Median (Week 4): −7 U/L
ALT Change from Baseline, Min (Week 4): −44 U/L
ALT Observed Value, Max (Week 4): 104 U/L
ALT Observed Value, Median (Week 4): 29 U/L
ALT Observed Value, Min (Week 4): 8 U/L
AST Change from Baseline, Max (Week 4): 43 U/L
AST Change from Baseline, Mean (Week 4): −3.5 U/L
AST Change from Baseline, Median (Week 4): −5 U/L
AST Change from Baseline, Min (Week 4): −31 U/L
AST Observed Value, Max (Week 4): 89 U/L
AST Observed Value, Min (Week 4): 13 U/L
Albumin Change from Baseline, Max (Week 4): 5 g/L
Albumin Change from Baseline, Mean (Week 4): -0.7 g/L
Albumin Change from Baseline, Median (Week 4): -1 g/L
Albumin Change from Baseline, Min (Week 4): -7 g/L
Albumin Observed Value, Max (Week 4): 47 g/L
Albumin Observed Value, Median (Week 4): 42 g/L
Albumin Observed Value, Min (Week 4): 34 g/L
Alkaline Phosphatase Change from Baseline, Max (Week 4): 34 U/L
Alkaline Phosphatase Change from Baseline, Min (Week 4): −89 U/L
Alkaline Phosphatase Observed Value, Max (Week 4): 307 U/L
Alkaline Phosphatase Observed Value, Min (Week 4): 54 U/L
Bilirubin Change from Baseline, Max (Week 4): 9.0 µmol/L
Bilirubin Change from Baseline, Mean (Week 4): -1.10 µmol/L
Bilirubin Change from Baseline, Median (Week 4): -1.5 µmol/L
Bilirubin Change from Baseline, Min (Week 4): -14.2 µmol/L
Bilirubin Observed Value, Max (Week 4): 54.0 µmol/L
Bilirubin Observed Value, Min (Week 4): 3.4 µmol/L
Gamma Glutamyl Transferase Change from Baseline, Max (Week 4): 105 U/L
Gamma Glutamyl Transferase Change from Baseline, Mean (Week 4): 1.7 U/L
Gamma Glutamyl Transferase Change from Baseline, Median (Week 4): −0.5 U/L
Gamma Glutamyl Transferase Change from Baseline, Min (Week 4): −88 U/L
Gamma Glutamyl Transferase Observed Value, Max (Week 4): 309 U/L
Gamma Glutamyl Transferase Observed Value, Min (Week 4): 12 U/L
ALT: subjects Within 10% of Baseline (Week 4): 8 (20.0%) n (%)
ALT: subjects with >10% decrease from Baseline (Week 4): 26 (65.0%) n (%)
ALT: subjects with >10% increase from Baseline (Week 4): 6 (15.0%) n (%)
AST: subjects Within 10% of Baseline (Week 4): 6 (15.0%) n (%)
AST: subjects with >10% decrease from Baseline (Week 4): 26 (65.0%) n (%)
AST: subjects with >10% increase from Baseline (Week 4): 8 (20.0%) n (%)
Albumin: subjects Within 10% of Baseline (Week 4): 35 (87.5%) n (%)
Albumin: subjects with >10% decrease from Baseline (Week 4): 3 (7.5%) n (%)
Albumin: subjects with >10% increase from Baseline (Week 4): 2 (5.0%) n (%)
Alkaline Phosphatase: subjects Within 10% of Baseline (Week 4): 16 (40.0%) n (%)
Alkaline Phosphatase: subjects with >10% decrease from Baseline (Week 4): 22 (55.0%) n (%)
Alkaline Phosphatase: subjects with >10% increase from Baseline (Week 4): 2 (5.0%) n (%)
Bilirubin: subjects Within 10% of Baseline (Week 4): 7 (17.5%) n (%)
Bilirubin: subjects with >10% decrease from Baseline (Week 4): 19 (47.5%) n (%)
Bilirubin: subjects with >10% increase from Baseline (Week 4): 14 (35.0%) n (%)
ALT Change from Baseline, Max (Week 8): 20 U/L
ALT Change from Baseline, Median (Week 8): −5.5 U/L
ALT Change from Baseline, Min (Week 8): −65 U/L
ALT Observed Value, Max (Week 8): 138 U/L
ALT Observed Value, Median (Week 8): 26 U/L
ALT Observed Value, Min (Week 8): 9 U/L
AST Change from Baseline, Max (Week 8): 17 U/L
AST Change from Baseline, Mean (Week 8): −5.1 U/L
AST Change from Baseline, Median (Week 8): −5 U/L
AST Change from Baseline, Min (Week 8): −46 U/L
AST Observed Value, Max (Week 8): 63 U/L
AST Observed Value, Min (Week 8): 8 U/L
Albumin Change from Baseline, Max (Week 8): 4 g/L
Albumin Change from Baseline, Mean (Week 8): -0.7 g/L
Albumin Change from Baseline, Median (Week 8): -1 g/L
Albumin Change from Baseline, Min (Week 8): -5 g/L
Albumin Observed Value, Max (Week 8): 48 g/L
Albumin Observed Value, Median (Week 8): 42 g/L
Albumin Observed Value, Min (Week 8): 36 g/L
Alkaline Phosphatase Change from Baseline, Max (Week 8): 19 U/L
Alkaline Phosphatase Change from Baseline, Min (Week 8): −105 U/L
Alkaline Phosphatase Observed Value, Max (Week 8): 341 U/L
Alkaline Phosphatase Observed Value, Median (Week 8): 94 U/L
Alkaline Phosphatase Observed Value, Min (Week 8): 46 U/L
Bilirubin Change from Baseline, Max (Week 8): 6.8 µmol/L
Bilirubin Change from Baseline, Mean (Week 8): -1.60 µmol/L
Bilirubin Change from Baseline, Median (Week 8): -0.95 µmol/L
Bilirubin Change from Baseline, Min (Week 8): -14.9 µmol/L
Bilirubin Observed Value, Max (Week 8): 61.8 µmol/L
Bilirubin Observed Value, Min (Week 8): 3.4 µmol/L
Gamma Glutamyl Transferase Change from Baseline, Max (Week 8): 77 U/L
Gamma Glutamyl Transferase Change from Baseline, Mean (Week 8): −5.7 U/L
Gamma Glutamyl Transferase Change from Baseline, Median (Week 8): −5.5 U/L
Gamma Glutamyl Transferase Change from Baseline, Min (Week 8): −145 U/L
Gamma Glutamyl Transferase Observed Value, Max (Week 8): 281 U/L
Gamma Glutamyl Transferase Observed Value, Median (Week 8): 46 U/L
Gamma Glutamyl Transferase Observed Value, Min (Week 8): 6 U/L
ALT: subjects Within 10% of Baseline (Week 8): 7 (17.5%) n (%)
ALT: subjects with >10% decrease from Baseline (Week 8): 26 (65.0%) n (%)
ALT: subjects with >10% increase from Baseline (Week 8): 7 (17.5%) n (%)
AST: subjects Within 10% of Baseline (Week 8): 8 (20.0%) n (%)
AST: subjects with >10% decrease from Baseline (Week 8): 24 (60.0%) n (%)
AST: subjects with >10% increase from Baseline (Week 8): 8 (20.0%) n (%)
Albumin: subjects Within 10% of Baseline (Week 8): 38 (95.0%) n (%)
Albumin: subjects with >10% decrease from Baseline (Week 8): 1 (2.5%) n (%)
Albumin: subjects with >10% increase from Baseline (Week 8): 1 (2.5%) n (%)
Alkaline Phosphatase: subjects Within 10% of Baseline (Week 8): 13 (32.5%) n (%)
Alkaline Phosphatase: subjects with >10% decrease from Baseline (Week 8): 25 (62.5%) n (%)
Alkaline Phosphatase: subjects with >10% increase from Baseline (Week 8): 2 (5.0%) n (%)
